The numbers were not newly measured in patent publication US5362496A, “Method and therapeutic system for smoking cessation” (priority 1993, dated 1994), which cites them from elsewhere.

Like-named read-outs stand apart in the source and are kept apart here. Peptide text beside a SMILES is read from it.

The conditions of data set [1]: relative, Sucrose = 1.0.
Data set [2] deals with Streptococcus mutans and other oral microorganisms.
The conditions of data set [3]: in vitro and in vivo studies.
For data set [4] the following is noted: humans.
For data set [5] the following is noted: human cadaver skin in vitro.
The conditions of data set [6]: free base; mucous membranes and intact skin.
Data set [7] has as its system nicotinic cholinergic receptors in the central nervous system and at autonomic ganglia. As to conditions: in 10 minutes.

As for `CC1=CC(=O)NS(=O)(=O)O1` [Acesulfame], the Sweetness in data set [1] is reported as 200.

With `COC(=O)[C@H](Cc1ccccc1)NC(=O)[C@@H](N)CC(=O)O` [Aspartame] (H-Asp-Phe-OMe), the Sweetness in data set [1] is on record as 100-200.

For `O=S(=O)(O)NC1CCCCC1` [Cyclamate], in data set [1], the Sweetness is 30-40.

As to `OC[C@@H](O)[C@@H](O[C@H]1O[C@H](CO)[C@@H](O)[C@H](O)[C@H]1O)[C@H](O)[C@@H](O)CO` [Maltitol], the Sweetness in data set [1] was 0.7-0.9. The cariogenicity result in data set [2] is “generally not fermented to any significant degree and are less cariogenic than sucrose”.

For `OC[C@@H](O)[C@@H](O)[C@H](O)[C@H](O)CO` [Mannitol], in data set [1], the Sweetness is on record as 0.4-0.6. The cariogenicity entry in data set [2] was “generally not fermented to any significant degree and are less cariogenic than sucrose”.

With `COc1ccc([C@@H]2CC(=O)c3c(O)cc(O[C@@H]4O[C@H](CO)[C@@H](O)[C@H](O)[C@H]4O[C@@H]4O[C@@H](C)[C@H](O)[C@@H](O)[C@H]4O)cc3O2)cc1O` [Neohesperidine], in data set [1], the Sweetness is 1000.

As for `O=C(CO)[C@@H](O)[C@H](O)[C@H](O)CO[C@H]1O[C@H](CO)[C@@H](O)[C@H](O)[C@H]1O` [Palantinose], the Sweetness in data set [1] is recorded as 0.4-0.5. The cariogenicity result in data set [2] was “generally not fermented to any significant degree and are less cariogenic than sucrose”.

As to `O=C1NS(=O)(=O)c2ccccc21` [Saccharin], the Sweetness in data set [1] is reported as 400-500.

In the case of `OC[C@@H](O)[C@@H](O)[C@H](O)[C@@H](O)CO` [Sorbitol], the Sweetness in data set [1] is 0.5-0.6. In addition, the cariogenicity result in data set [2] is “generally not fermented to any significant degree and are less cariogenic than sucrose”.

In the case of `OC[C@@H](O)[C@H](O)[C@@H](O)CO` [Xylitol], in data set [1], the Sweetness was 1.0. Further, the cariogenicity entry in data set [2] was “generally not fermented to any significant degree and are less cariogenic than sucrose”. Further, the “effect on development of new caries” value in data set [3] is reported as “inhibit the development of new caries”. Moreover, in data set [4], the “effect on food intake” value is “decrease food intake” and the “effect on gastric emptying” value is given as “prolong gastric emptying”.

For the compound `CC1(C)[C@@H](O[C@H]2O[C@H](C(=O)O)[C@@H](O)[C@H](O)[C@H]2O[C@@H]2O[C@H](C(=O)O)[C@@H](O)[C@H](O)[C@H]2O)CC[C@]2(C)[C@H]3C(=O)C=C4[C@@H]5C[C@@](C)(C(=O)O)CC[C@]5(C)CC[C@@]4(C)[C@]3(C)CC[C@@H]12` [ammonium glycyrrhizinate], the cariogenicity entry in data set [2] is “generally not fermented to any significant degree and are less cariogenic than sucrose”.

Consider `O=C(CO)[C@@H](O)[C@H](O)[C@H](O)CO` [fructose], for which the cariogenicity entry in data set [2] is “generally not fermented to any significant degree and are less cariogenic than sucrose”.

`O=C[C@H](O)[C@@H](O)[C@H](O)[C@H](O)CO` [glucose]: the cariogenicity entry in data set [2] was “cariogenic or caries causing”.

Regarding `CN1CCCC1c1cccnc1` (stereo not shown) [nicotine], the lipid solubility result is “highly lipid soluble”. In data set [5] (first day of patch use), the skin permeability is reported as roughly 0.1 mg/cm^2 ·h. Moreover, the skin permeability in data set [5] (later times) was no less than 0.4 mg/cm^2 ·h. In addition, in data set [6], the “absorption through membranes and skin” value is “absorbed readily through mucous membranes and intact skin”. The volatility result (free base) is recorded as “extremely volatile”. For the same compound, the light stability entry (ultraviolet light) is given as “degrades when exposed to ultraviolet light”. The “rise in nicotine blood level required for postsynaptic effects” value in data set [7] is on record as “at least 10 ng/mL”.

For the compound `OC[C@H]1O[C@@](CO)(O[C@H]2O[C@H](CO)[C@@H](O)[C@H](O)[C@H]2O)[C@@H](O)[C@@H]1O` [sucrose, reference compound], the cariogenicity result in data set [2] was “cariogenic or caries causing”.

Consider Monellin, for which the Sweetness in data set [1] is reported as 2500.

With starch, in data set [2], the cariogenicity entry is recorded as “cariogenic or caries causing”.
